Experimental data as given in patent US20080279932A1, “Compounds” (priority 2005, published 2008).
Marks after values point to notes of the source that are not given here.

Assays:
Racemization study = assay type: physicochemical
Text: The free base in water chemically degraded and detection of racemization was not possible.

[1] = Forced decomposition (HPLC assay, 3 days); assay type: physicochemical; settings: for HPLC Assay Results (External Standard): in % (unit assumed)
Protocol: Procedure: Weigh 25 mg drug substance to a test tube and add 5 ml of appropriate solution.
(§1) One sample preparation per condition and one injection per sample.
Dilute sample to 1 mg/mL with water for HPLC analysis.
All salt forms were tested in bulk and water.
If the newer gradient method is selected then the order of elution of the acid degradation product and the amide degradation product are reversed, with the acid degradation product eluting first about 1.8 minutes and the amide degradation product eluting second about 2.5 minutes. Only the extended stability (3 month) samples were analyzed with the gradient HPLC method.

[2] = Dissociation constant (pKa's) of LAF237 free base and salt-forming acids; assay type: physicochemical; settings: LAF237 free base
[3] = Stability of bulk material with excipients for 2 weeks at 50 C and 50 C/75% r.h. (HPLC assay); assay type: physicochemical; settings: for HPLC Assay Results (External Standard): in % (unit assumed); for stability compared with the free base of vildagliptin: bulk and excipient mixtures, 2 weeks
Protocol: Stability of Bulk Material with Excipients for 2 week at 50 C and 50 C/75% r.h.
Procedure for Dry Mixtures: 25 mg of free base drug substance was weighed into sample tube and approximately 2.5 grams of mixture A, or 25 mg of Lactose was added to the tube. Weight adjustments were made for each salt.
as §1
Controls: A control of the drug substance with the excipients will be prepared and analyzed as a time zero data point and to test the efficiency of extracting the drug substance from the excipients.
Mixture A: (oral) mannitol/Avicel PH 102/Cutina HR 57:38:5 (m/m/m)

[4] = cited from earlier work; for Dissociation Constant (pKa's), first value: first pKa of the salt-forming acid (counter-ion); for Dissociation Constant (pKa's), second value: second pKa of the salt-forming acid (counter-ion)
[5] = 1% in mixture A Dry Granulated, 2 weeks at 50/75% r.h.
[6] = 1% in mixture A Dry Granulated, 2 weeks at 50° C.
[7] = 1% in mixture A Dry Granulated, t0
[8] = 50% in Lactose Dry Granulated, 2 weeks at 50/75% r.h.
[9] = 50% in Lactose Dry Granulated, 2 weeks at 50° C.
[10] = 50% in Lactose Dry Granulated, t0

Row | HPLC Assay Results (External Standard) ([1]; Bulk, 80° C. (3-day)) | HPLC Assay Results (External Standard) ([1]; Bulk, ambient (3-day)) | HPLC Assay Results (External Standard) ([1]; H2O, 80° C. (3-day)) | HPLC Assay Results (External Standard) ([1]; H2O, ambient (3-day)) | HPLC Assay Results (External Standard) [3, 5] | HPLC Assay Results (External Standard) [3, 6] | HPLC Assay Results (External Standard) [3, 7] | HPLC Assay Results (External Standard) [3, 8] | HPLC Assay Results (External Standard) [3, 9] | HPLC Assay Results (External Standard) [3, 10] | HPLC Assay Results (External Standard) ([3]; Bulk, 2 weeks at 50/75% r.h.) | HPLC Assay Results (External Standard) ([3]; Bulk, 2 weeks at 50° C.) | HPLC Assay Results (External Standard) ([3]; Bulk, t0) | Compound | racemization (Racemization study; drug in the solid state) | stability in water ([1]; water at 80° C. after 3 days) | stability compared with the free base of vildagliptin [3] | Dissociation Constant (pKa's), first value [4] | Dissociation Constant (pKa's), second value [4] | also measured
1 | 100.3 | 99.9 | 7.5 | 98.4 | 83.8* | 94.2* | 98.1* | 96.5 | 98.9 | 100.7 | 98.7 | 98.6 | 100.0 | N#C[C@@H]1CCCN1C(=O)CNC12CC3CC(CC(O)(C3)C1)C2 [Free Base, (S)-1-[(3-hydroxy-1-adamantyl)amino]acetyl-2-cyano-pyrrolidine, reference compound] | no sign of racemization | – | – | – | – | stability in water ([1]; free base in water, after 3 days): complete degradation; LAF237 remaining ([1]; peroxide sample, after three days): 3%; stability under acidic conditions ([1]; room temperature): good stability; pKa [2]: 7.86; % loss in assay value ([3]; in the presence of mixture A): large losses
2 | 98.8 | 102.2 | 98.9 | 101.9 | 96.0 | 94.6 | 96.1 | 98.2 | 98.9 | 99.5 | 98.9 | 99.0 | 104.0 | Hydrogen Fumarate Salt of Vildagliptin [Example 4] | – | remain stable | better stability | 3.03 | 4.47 | –
3 | – | – | – | – | – | – | – | – | – | – | – | – | – | tartarate | – | – | – | 2.98 | 4.34 | –

Row | Compound | HPLC Assay Results (External Standard) ([1]; Bulk, 80° C. (3-day)) | HPLC Assay Results (External Standard) ([1]; Bulk, ambient (3-day)) | HPLC Assay Results (External Standard) ([1]; H2O, 80° C. (3-day)) | HPLC Assay Results (External Standard) ([1]; H2O, ambient (3-day)) | HPLC Assay Results (External Standard) [3, 5] | HPLC Assay Results (External Standard) [3, 6] | HPLC Assay Results (External Standard) [3, 7] | HPLC Assay Results (External Standard) [3, 8] | HPLC Assay Results (External Standard) [3, 9] | HPLC Assay Results (External Standard) [3, 10] | HPLC Assay Results (External Standard) ([3]; Bulk, 2 weeks at 50/75% r.h.) | HPLC Assay Results (External Standard) ([3]; Bulk, 2 weeks at 50° C.) | HPLC Assay Results (External Standard) ([3]; Bulk, t0) | racemization (Racemization study; drug in the solid state) | stability in water ([1]; water at 80° C. after 3 days) | stability compared with the free base of vildagliptin [3] | Dissociation Constant (pKa's), first value [4] | Dissociation Constant (pKa's), second value [4] | also measured
4 | Hydrochloride Salt of Vildagliptin [Example 1] | 98.8 | 98.8 | 95.3 | 99.9 | 95.5 | 96.6 | 97.3 | 98.7 | 99.7 | 100.8 | 99.6 | 100.5 | 100.7 | no sign of racemization | remain stable | better stability | – | – | racemization (Racemization study; in solution in water, 80° C.): no sign of racemization; racemization (Racemization study; in solution in water, ambient): no sign of racemization
